Source: publication PMC4935606 (Organic & biomolecular chemistry, 2016)

Key:
[1] = Spontaneous conversion of 1 to 13 under the assay conditions; type: physicochemical; details: 90 min, in the presence or absence of DTT
[2] = Side-by-side LCMS/UV solution stability study; type: physicochemical; details: 0.1 mg/mL in DMSO/H2O (5:1), within 24 h
cells = details: ref 7b; cited from earlier work
tumor cell = details: cited from earlier work
recombinant human PTP4A3 = recombinant human PTP4A3 (Homo sapiens, UniProt O75365); experiment: In vitro PTP4A3 phosphatase inhibition assay with DiFMUP substrate; type: biochemical
recombinant human PTP4A3, sequence (O75365 whole entry): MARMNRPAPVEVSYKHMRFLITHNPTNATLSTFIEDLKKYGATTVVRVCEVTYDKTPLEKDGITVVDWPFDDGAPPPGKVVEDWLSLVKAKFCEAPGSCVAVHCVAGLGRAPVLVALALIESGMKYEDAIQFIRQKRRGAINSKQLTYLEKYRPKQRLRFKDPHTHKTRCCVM

| Spontaneous conversion of 1 to 13 [1] [%] | Decomposition [2] [%] | PTP4A3 inhibition (in words) (recombinant human PTP4A3; qualitative statement) | IC50 (recombinant human PTP4A3; read-out: IC50 [µM±S.D.], inhibition of PTP4A3 activity, n=3, DiFMUP 12 µM, 25 °C, 30 min, pH 7.0, 4 mM DTT) [µM] | Structure (SMILES) | Short-term cytotoxicity in cells (cells) | Inhibition of tumor cell anchorage-independent growth (tumor cell) |
| --- | --- | --- | --- | --- | --- | --- |
| ≤ 5 | > 80 |  |  | Nc1c[nH]c(=O)c2cc(-c3ccccc3)sc12 [Compound 1] | does not have any short-term cytotoxicity | Significant inhibition |
|  |  | remarkably less active than 1 | > 80 | O=c1[nH]ccc2sc(-c3ccccc3)cc12 [Compound 12] |  |  |
